Like-named read-outs stand apart in the source and are kept apart here.
Test system: egg-nidation in rats
Test: Nidation inhibition in rats (egg-nidation inhibitory action, indirect measure of anti-prolactin activity)
Assay type: in vivo, Sprague Dowley rats
Conditions: Rattus norvegicus, po, read-out: Nidation inhibition in rats, ED50
Experimental: Pregnant Sprague Dowley rats weighing 200-250 g were used. The compounds to be tested, dissolved in diluted mineral acids, were administered orally to groups from six to eight rats on day 5 of pregnancy. The animals were sacrificed on day 14 and the uteri were examined. The absence of implantation sites was taken as the criterion of anti-prolactin activity. Several doses were tested for the ED50 evaluation. As reference standard Bromocryptine was used.

[1] = pregnant rats, given on day 5 of pregnancy, absence of implantation sites on day 14

Structure (SMILES) | ED50 [mg/kg] | ED50 [1] [mg/kg]
CC(C)C[C@H]1C(=O)N2CCC[C@H]2[C@]2(O)O[C@](NC(=O)[C@@H]3C=C4c5cccc6[nH]c(Br)c(c56)C[C@H]4N(C)C3)(C(C)C)C(=O)N12 [2-bromo-α-ergocryptine, reference compound] | 5.7 | –
Cc1cc(NC(=O)[C@@H]2C[C@@H]3c4cccc5[nH]cc(c45)C[C@H]3N(C)C2)nc(C)n1 [Example 1, N-(2', 6'-dimethyl-4'-pyrimidyl)-6-methylergoline-8β-carboxamide] | – | 1.8
Cc1cc(NC(=O)[C@@H]2C[C@@H]3c4cccc5[nH]c(C)c(c45)C[C@H]3N(C)C2)nc(C)n1 [Example 4, N-(2',6'-dimethyl-4'-pyrimidyl)-2,6-dimethylergoline-8β-carboxamide] | – | 0.5 to 1
CCCN1C[C@H](C(=O)Nc2cc(C)nc(C)n2)C[C@@H]2c3cccc4[nH]cc(c34)C[C@H]21 [Example 5, N-(2',6'-dimethyl-4'-pyrimidyl)-6-propylergoline-8β-carboxamide] | – | 0.3
